# From patent US12264163B2, “Compounds and methods for treating fibrotic pathologies” (Mayo Foundation for Medical Education and Research, priority 2019, dated 2025)
# Legend:
# Format in all cases: cell-based, human
# YAP/TAZ [1] = assay: YAP/TAZ nuclear localization in IMR-90 and other fibroblasts / mesenchymal cells (immunofluorescence); conditions: for YAP/TAZ nuclear localization: fibroblasts / mesenchymal cells on plastic, 2 hours
# YAP/TAZ [2] = assay: as above; conditions: cells with lower DRD1 and DRD5 expression than IMR-90
# [3] = tested on: IPF patient derived fibroblasts; assay: Traction force microscopy of IPF patient-derived fibroblasts; conditions: IPF fibroblasts on 6.4 kPa matrices
# Method: Traction Force Microscopy: Traction analysis was conducted as previously described. […] IPF patient derived fibroblasts were plated on the gels overnight and treated as indicated before traction force measurements. Images of gel surface-conjugated fluorescent beads were acquired for each cell before and after trypsinization using a Nikon ECLIPSE Ti microscope at ×10 magnification. Traction forces were estimated by measuring bead displacement fields and computing corresponding traction fields using TractionsForAll (freely distributed program that calculates 2-D tractions exerted by an adherent cell on its substrate).
# αSMA = assay: TGFβ-induced αSMA+ stress fiber formation in fibroblasts; conditions: TGFβ 72 hours, DHX from 48-72 hours
# Method: Media was then exchanged for the indicated conditions for each experiment. Cells were fixed in 3.7% formalin (Sigma-Aldrich), permeabilized in 0.25% Triton X-100 (Sigma-Aldrich) and then blocked with 1% BSA for 1 h. Cells or tissue sections were incubated overnight with mouse monoclonal antibody against αSMA (Sigma-Aldrich F3777), and/or a rabbit monoclonal antibody against YAP/TAZ (Cell Signaling D24E4) diluted 1:200 in PBS with 1% BSA. Cells were then washed and exposed to flourescence-conjugated secondary antibodies (Invitrogen) diluted 1:1000 and DAPI (Thermo Fisher Scientific). Images were taken with a Cytation5 (BioTek) microscope. For scoring αSMA positive cells (FIG. 12), an observer blinded to the treatment conditions counted αSMA-positive cells using a visual threshold for bright fibrous staining; a minimum of 200 cells was counted for each condition. YAP/TAZ localization was quantified (FIGS. 6-10, 24-26, and 29-30) using Gen5 (Biotek) software. Images were taken at 4× magnification of both DAPI and YAP/TAZ staining. […] Quantification of double positive (YAP/TAZ and αSMA) cells from lung tissue sections (FIG. 17-21) was performed similarly; however separate thresholds were established for both YAP/TAZ and αSMA. A minimum of 4000 cells was quantified for each mouse.
# YAP = assay: Western blotting of YAP serine 127 phosphorylation; conditions: IMR-90 cells, 10 μM, 2 hours
# Method: IMR-90 cells cultured for 24 hours in media containing 0.1% FBS, treated 2 hours prior to fixation. N=3 (***p<0.001 vs. 0.1% DMSO vehicle control).
# Western Blotting: Cells were plated in EMEM containing 10% FBS overnight. Media was exchanged with EMEM containing 0.1% FBS for 24 hours. Prior to protein isolation cells were treated with the indicated concentration of compounds for the indicated time. Total protein was isolated using RIPA buffer (pH 8.0) containing Pierce Phosphatase Inhibitor (Thermo) and Halt Protease Inhibitor Cocktail (Thermo). Lysate total protein concentration was determined using Pierce BCA Protein Assay Kit (Thermo) and samples were run on a 10% polyacrylamide gel. Blots were incubated overnight with primary antibodies: pYAP (Ser 127, Cell Signaling D9W21), YAP/TAZ (Cell Signaling D24E4), GAPDH (Cell Signaling 14C10), HSC70 (Santa Cruz sc-7298), αSMA (Abcam ab5694), and fibronectin (Santa Cruz sc-9068) diluted 1:1000 in Li-Cor Odyssey Blocking Buffer. Blots were washed with TBS-Tween before 60 minute incubation with IR-dye-conjugated secondary antibodies (Li-Cor) diluted 1:10,000. Plates were imaged via a Li-Cor OdysseyXL system with quantification performed via densitometry.
structure (smiles),measurement,setting,value
Oc1cc2c(cc1O)[C@H]1c3ccccc3CN[C@@H]1CC2 (racemic) [Dihydrexidine],YAP/TAZ nuclear localization stimulated by GPCR ligands,"YAP/TAZ [1]; confluent fibroblasts, endothelin-1, lysophosphatidic acid, serotonin, DHX 10 μM",blocked nuclear localization of YAP/TAZ
same,YAP/TAZ nuclear localization,YAP/TAZ [1],reduced nuclear localization of YAP/TAZ
same,YAP/TAZ nuclear localization,YAP/TAZ [1]; listed as DHX,effective at inhibiting YAP/TAZ nuclear localization
same,"potency of inhibition of YAP/TAZ nuclear localization, normal vs IPF lung fibroblasts",YAP/TAZ [1]; normal lung fibroblasts vs those from a patient with IPF,equally potent
same,YAP/TAZ nuclear localization in mesenchymal cells derived from uterine fibroids,YAP/TAZ [2],marginal inhibition of YAP/TAZ nuclear localization
same,contractile forces (traction force microscopy),[3],significantly and dose-dependently reduced the contractile forces
same,TGFβ-induced myofibroblastic transition (αSMA+ stress fibers),αSMA,reversed this transition
same,YAP serine 127 phosphorylation,YAP,promoted YAP serine 127 phosphorylation
